Results published in patent publication US9115137B2, “2,3,4,5-tetrahydro-1H-pyrido[4,3-B]indole compounds and methods of use thereof” (priority 2008, dated 2015).
Read-outs that look alike come from different tables or passages of the source.

Tests used:
[1] = target: T1, human recombinant histamine H2 receptor (Homo sapiens, UniProt P25021); assay: Histamine H2 radioligand binding ([125I]aminopotentidine); details: read-out: Histamine Binding (1 μM) H2, percent inhibition of specific binding
T1 construct: expressed in transfected cells; host or cells: CHO-K1 cells
Method: To evaluate in radioligand binding assays the activity of compounds of the invention, human recombinant histamine H2 receptor expressed in Chinese hamster ovary (CHO) K1 cells (Ruat, M., Proc. Natl. Acad. Sci. USA. 87(5):1658, 1990) in a 50 mM Phosphate buffer, pH 7.4 was used. Compounds of the invention were incubated with 0.1 nM [^125I]aminopotentidine for 120 minutes at 25° C. Non-specific binding was estimated in the presence of 3 μM Tiotidine. Receptor proteins were filtered and washed, the filters were then counted to determine [^125I]Aminopotentidine specifically bound. Compounds were screened at 1 μM, using 1% DMSO as vehicle. Biochemical assay results are presented as the percent inhibition of specific binding in Table 5.

[2] = target: T2, human recombinant serotonin (5-Hydroxytryptamine) 5-HT2C receptor (Homo sapiens, UniProt P28335); assay: Serotonin 5-HT2C radioligand binding ([3H]Mesulergine); details: read-out: Serotonin (1 μM) 5-HT2C, percent inhibition of specific binding
T2 construct: expressed in transfected cells; host or cells: CHO-K1 cells
T2 sequence (P28335 33-458): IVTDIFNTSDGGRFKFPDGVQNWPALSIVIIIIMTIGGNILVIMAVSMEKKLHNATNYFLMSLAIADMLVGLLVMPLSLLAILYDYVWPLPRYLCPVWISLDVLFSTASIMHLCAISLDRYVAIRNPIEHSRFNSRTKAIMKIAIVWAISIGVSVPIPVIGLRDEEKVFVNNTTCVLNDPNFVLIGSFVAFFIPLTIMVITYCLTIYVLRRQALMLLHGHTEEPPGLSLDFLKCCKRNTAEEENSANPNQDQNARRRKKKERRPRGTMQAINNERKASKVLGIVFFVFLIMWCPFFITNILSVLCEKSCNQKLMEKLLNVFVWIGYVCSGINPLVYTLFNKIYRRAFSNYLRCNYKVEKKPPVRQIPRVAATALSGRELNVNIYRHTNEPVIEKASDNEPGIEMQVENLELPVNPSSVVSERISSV
Method: To evaluate in radioligand binding assays the activity of compounds of the invention, human recombinant serotonin (5-Hydroxytryptamine) 5-HT2C receptor expressed in Chinese hamster ovary (CHO-K1) cells (Wolf, W. A. and Schutz, J. S., J. Neurochem. 69:1449, 1997) in a modified Tris-HCl buffer (50 mM Tris-HCl, pH 7.4, 0.1% Ascorbic Acid, 10 μM Pargyline) was used. Compounds of the invention were incubated with 1 nM [^3H]Mesulergine for 60 minutes at 25° C. Non-specific binding was estimated in the presence of 1 μM Mianserin. Receptor proteins were filtered and washed, the filters were then counted to determine [^3H]Mesulergine specifically bound. Compounds were screened at 1 μM or lower, using 1% DMSO as vehicle. Biochemical assay results are presented as the percent inhibition of specific binding in Table 7.

[3] = target: T3, human recombinant adrenergic α1D receptor (Homo sapiens, UniProt P25100); assay: Adrenergic α1D radioligand binding ([3H]Prozosin); details: read-out: Adrenergic (1 μM) α1D, percent inhibition of specific binding
T3 construct: expressed in transfected cells; host or cells: HEK-293 cells
T3 sequence (P25100 1-572): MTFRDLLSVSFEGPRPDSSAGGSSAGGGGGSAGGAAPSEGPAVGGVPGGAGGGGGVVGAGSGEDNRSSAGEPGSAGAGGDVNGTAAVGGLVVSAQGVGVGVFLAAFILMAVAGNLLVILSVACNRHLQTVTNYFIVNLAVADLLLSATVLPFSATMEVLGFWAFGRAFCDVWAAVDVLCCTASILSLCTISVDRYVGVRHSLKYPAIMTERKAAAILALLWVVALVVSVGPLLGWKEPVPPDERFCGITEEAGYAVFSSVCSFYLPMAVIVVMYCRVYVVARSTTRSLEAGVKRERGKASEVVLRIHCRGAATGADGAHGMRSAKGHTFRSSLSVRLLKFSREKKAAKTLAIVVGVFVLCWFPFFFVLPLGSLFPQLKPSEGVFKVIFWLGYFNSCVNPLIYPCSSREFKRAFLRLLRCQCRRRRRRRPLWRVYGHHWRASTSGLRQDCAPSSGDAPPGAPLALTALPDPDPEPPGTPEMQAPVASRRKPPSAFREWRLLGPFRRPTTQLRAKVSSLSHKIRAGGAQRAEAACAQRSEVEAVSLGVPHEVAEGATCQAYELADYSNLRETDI
Method: To evaluate in radioligand binding assays the activity of compounds of the invention, human recombinant adrenergic α1D receptor expressed in human embryonic kidney (HEK-293) cells (Kenny, B. A. et al. Br. J. Pharmacol. 115(6):981, 1995) in a 50 mM Tris-HCl buffer, pH 7.4, was used. Compounds of invention were incubated with 0.6 nM [^3H]Prozosin for 60 minutes at 25° C. Non-specific binding was estimated in the presence of 10 μM phentolamine. Receptor proteins were filtered and washed, the filters were then counted to determine [^3H]Prozosin specifically bound. Compounds were screened at 1 μM or lower, using 1% DMSO as vehicle. Biochemical assay results are presented as the percent inhibition of specific binding in Table 6.

[4] = compound at 1 μM, HEK-293 cells

T1 sequence (P25021 whole entry): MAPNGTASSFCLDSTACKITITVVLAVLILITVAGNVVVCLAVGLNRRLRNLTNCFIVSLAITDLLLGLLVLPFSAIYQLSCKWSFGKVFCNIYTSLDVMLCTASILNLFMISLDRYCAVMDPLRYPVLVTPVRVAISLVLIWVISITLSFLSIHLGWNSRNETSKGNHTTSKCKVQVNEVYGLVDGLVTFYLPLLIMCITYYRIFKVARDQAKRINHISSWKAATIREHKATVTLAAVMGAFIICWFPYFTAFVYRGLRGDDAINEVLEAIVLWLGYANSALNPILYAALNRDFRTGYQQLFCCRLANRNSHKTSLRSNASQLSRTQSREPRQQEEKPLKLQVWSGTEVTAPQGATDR

Row | SMILES | inhibition at 1 µM ([1]; compound at 1 μM, CHO K1 cells) | inhibition at 1 µM ([2]; compound at 1 μM, CHO-K1 cells) | inhibition at 1 µM [3, 4] | inhibition at 1 µM [1] | inhibition at 1 µM [2] | inhibition at 1 µM [3]
1 | CN1CCc2c(c3cc(Cl)ccc3n2CC(=O)OCc2ccccc2)C1 [Compound 13, benzyl 2-(8-chloro-1,2,3,4-tetrahydro-2-methylpyrido[4,3-b]indol-5-yl)acetate] | 51% | 91% | 55% | – | – | –
2 | Cc1ccc2c(c1)c1c(n2CC(=O)NCc2ccccc2)CCN(C)C1 [Compound 25, N-benzyl-2-(1,2,3,4-tetrahydro-2,8-dimethylpyrido[4,3-b]indol-5-yl)acetamide] | 9% | 61% | 22% | – | – | –
3 | Cc1ccc2c(c1)c1c(n2CCNC(=O)OCC(Cl)(Cl)Cl)CCN(C)C1 [Compound 8, 2,2,2-trichloroethyl 2-(1,2,3,4-tetrahydro-2,8-dimethylpyrido[4,3-b]indol-5-yl)ethylcarbamate] | 74% | 99% | 72% | – | – | –
4 | Cc1ccc2c(c1)c1c(n2CC(=O)NCC2CCCCC2)CCN(C)C1 [Compound 26, N-(cyclohexylmethyl)-2-(1,2,3,4-tetrahydro-2,8-dimethylpyrido[4,3-b]indol-5-yl)acetamide] | 22% | 54% | 32% | – | – | –
5 | CN1CCc2c(c3cc(Cl)ccc3n2CC(=O)NC2CCCCC2)C1 [Compound 60, 2-(8-chloro-1,2,3,4-tetrahydro-2-methylpyrido[4,3-b]indol-5-yl)-N-cyclohexylacetamide] | 3% | 35% | 22% | – | – | –
6 | Cc1ccc2c(c1)c1c(n2CCO)CCN(C)C1 [CD90, 2-(2,8-dimethyl-3,4-dihydro-1H-pyrido[4,3-b]indol-5(2H)-yl)ethanol] | 11% | 91% | 23% | – | – | –
7 | CN1CCc2c(c3cc(Cl)ccc3n2CC(N)=O)C1 [Compound 45, 2-(8-chloro-1,2,3,4-tetrahydro-2-methylpyrido[4,3-b]indol-5-yl)acetamide] | 3% | 52% | 12% | – | – | –
8 | CCOC(=O)CCn1c2c(c3cc(Cl)ccc31)CN(C)CC2 [CD17, ethyl 3-(8-chloro-1,2,3,4-tetrahydro-2-methylpyrido[4,3-b]indol-5-yl)propanoate] | 46% | 96% | 70% | – | – | –
9 | Cc1ccc2c(c1)c1c(n2CCNC(=O)C(C)C)CCN(C)C1 [Compound 61, N-(2-(1,2,3,4-tetrahydro-2,8-dimethylpyrido[4,3-b]indol-5-yl)ethyl)isobutyramide] | 13% | 27% | 28% | – | – | –
10 | CN1CCc2c(c3cc(Cl)ccc3n2CC(=O)O)C1 [CD46, 2-(8-chloro-1,2,3,4-tetrahydro-2-methylpyrido[4,3-b]indol-5-yl)acetic acid] | -3% | 30% | 10% | – | – | –
11 | Cc1ccc2c(c1)c1c(n2CCNC(=O)c2ccncc2)CCN(C)C1 [Compound 50, N-(2-(1,2,3,4-tetrahydro-2,8-dimethylpyrido[4,3-b]indol-5-yl)ethyl)isonicotinamide] | 9% | 35% | 37% | – | – | –
12 | Cc1ccc2c(c1)c1c(n2CCNC(=O)C2CCCC2)CCN(C)C1 [Compound 68, N-(2-(1,2,3,4-tetrahydro-2,8-dimethylpyrido[4,3-b]indol-5-yl)ethyl)cyclopentanecarboxamide] | 31% | 40% | 66% | – | – | –
13 | CNC(=O)CCn1c2c(c3cc(C)ccc31)CN(C)CC2 [Compound 1, 3-(1,2,3,4-tetrahydro-2,8-dimethylpyrido[4,3-b]indol-5-yl)-N-methylpropanamide] | 8% | 20% | 20% | – | – | –
14 | Cc1ccc2c(c1)c1c(n2CCC(=O)NC(C)(C)C)CCN(C)C1 [Compound 28] | 18% | 35% | 58% | – | – | –
15 | CN1CCc2c(c3cc(Cl)ccc3n2CCBr)C1 [CD88, 5-(2-bromoethyl)-8-chloro-2-methyl-2,3,4,5-tetrahydro-1H-pyrido[4,3-b]indole] | – | – | – | 64% | 84% | 94%
16 | Cc1ccc2c(c1)c1c(n2CCC#N)CCN(C)C1 [CD92, 3-(2,8-dimethyl-3,4-dihydro-1H-pyrido[4,3-b]indol-5(2H)-yl)propanenitrile] | 8% | 61% | 78% | – | – | –
17 | CN1CCc2c(c3cc(Cl)ccc3n2CCC(=O)OCc2ccccc2)C1 [Compound 19, benzyl 3-(8-chloro-1,2,3,4-tetrahydro-2-methylpyrido[4,3-b]indol-5-yl)propanoate] | 81% | 96% | 83% | – | – | –
18 | Cc1ccc2c(c1)c1c(n2CCC(N)=O)CCN(C)C1 [Compound 46, 3-(1,2,3,4-tetrahydro-2,8-dimethylpyrido[4,3-b]indol-5-yl)propanamide] | -5% | 65% | 7% | – | – | –
19 | Cc1ccc2c(c1)c1c(n2CC#N)CCN(C)C1 [CD61, 2-(1,2,3,4-tetrahydro-2,8-dimethylpyrido[4,3-b]indol-5-yl)acetonitrile] | 15% | 73% | 74% | – | – | –
20 | CN1CCc2c(c3cc(Cl)ccc3n2CC(=O)OC2CCCC2)C1 [Compound 15] | 47% | 94% | 58% | – | – | –
